Laboratory results from US8802597B2, “Herbicidal pyrimidines” (E I du Pont de Nemours and Company, priority 2003, dated 2014).

Experiments:
Experiment in all cases: Test G pre/postemergence
Format in all cases: in vivo
[1] = system: common mallow (Malva sylvestris)
Summary of the method: (§1)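 Visual scores from 0 (no effect) to 100 (complete control) were assigned relative to untreated controls 12 to 21 days after treatment. Compounds, formulated in a non-phytotoxic solvent mixture with surfactant, were applied preemergence to planted seed or postemergence to plants at the 1- to 4-leaf stage (2 to 18 cm).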

[2] = system: broadleaf signalgrass (Brachiaria platyphylla)
Summary of the method: as §1

[3] = system: Italian ryegrass (Lolium multiflorum)
Summary of the method: as §1

[4] = system: itchgrass (Rottboellia cochinchinensis)
Summary of the method: as §1

[5] = system: annual bluegrass (Poa annua)
Summary of the method: as §1

[6] = system: barnyardgrass (Echinochloa crus-galli)
Summary of the method: as §1

[7] = system: southern sandbur (Cenchrus echinatus)
Summary of the method: as §1

[8] = system: quackgrass (Elytrigia repens)
Summary of the method: as §1

[9] = system: Surinam grass (Brachiaria decumbens)
Summary of the method: as §1

[10] = system: johnsongrass (Sorghum halepense); conditions: Preemergence, scale 0-100
Summary of the method: as §1

[11] = system: common ragweed (Ambrosia elatior)
Summary of the method: as §1

[12] = system: downy bromegrass (Bromus tectorum)
Summary of the method: as §1

[13] = system: field bindweed (Convolvulus arvensis)
Summary of the method: as §1

[14] = system: guineagrass (Panicum maximum)
Summary of the method: as §1

[15] = Postemergence, 250 g ai/ha, scale 0 to 100
[16] = Postemergence, 16 g ai/ha, scale 0 to 100
[17] = Postemergence, 31 g ai/ha, scale 0 to 100
[18] = Postemergence, 125 g ai/ha, scale 0 to 100
[19] = Preemergence, 16 g ai/ha, scale 0-100
[20] = Preemergence, 31 g ai/ha, scale 0-100
[21] = Preemergence, 62 g ai/ha, scale 0-100
[22] = Preemergence, 125 g ai/ha, scale 0-100
[23] = Preemergence, 250 g ai/ha, scale 0-100
[24] = Postemergence, 62 g ai/ha, scale 0 to 100

Nc1nc(C2CC2)nc(C(=O)OCc2ccccc2)c1Br [Compound 22, phenylmethyl 6-amino-5-bromo-2-cyclopropyl-4-pyrimidinecarboxylate]
65: Plant response rating, Itchgrass [4, 23] | Plant response rating, Quackgrass [8, 24] | Plant response rating, Surinam Grass [9, 18] | Plant response rating, Ragweed [11, 16] | Plant response rating, Ragweed [11, 19] | Plant response rating, Bromegrass, Downy [12, 17] | Plant response rating, Bindweed, Field [13, 19] | Plant response rating, Guineagrass [14, 24]
20: Plant response rating, Itchgrass [4, 21] | Plant response rating, Barnyardgrass [6, 20] | Plant response rating, Quackgrass [8, 21] | Plant response rating, Quackgrass [8, 22] | Plant response rating, Johnsongrass ([10]; 62 g ai/ha) | Plant response rating, Bromegrass, Downy [12, 22]
60: Plant response rating, Mallow [1, 17] | Plant response rating, Bluegrass [5, 23]
0: Plant response rating, Signalgrass [2, 19] | Plant response rating, Signalgrass [2, 20] | Plant response rating, Signalgrass [2, 21] | Plant response rating, Ryegrass, Italian [3, 16] | Plant response rating, Ryegrass, Italian [3, 19] | Plant response rating, Ryegrass, Italian [3, 20] | Plant response rating, Ryegrass, Italian [3, 21] | Plant response rating, Ryegrass, Italian [3, 22] | Plant response rating, Itchgrass [4, 19] | Plant response rating, Itchgrass [4, 20] | Plant response rating, Bluegrass [5, 16] | Plant response rating, Bluegrass [5, 17] | Plant response rating, Bluegrass [5, 19] | Plant response rating, Bluegrass [5, 20] | Plant response rating, Bluegrass [5, 21] | Plant response rating, Barnyardgrass [6, 16] | Plant response rating, Barnyardgrass [6, 17] | Plant response rating, Sandbur [7, 16] | Plant response rating, Sandbur [7, 19] | Plant response rating, Sandbur [7, 20] | Plant response rating, Sandbur [7, 21] | Plant response rating, Quackgrass [8, 19] | Plant response rating, Quackgrass [8, 20] | Plant response rating, Surinam Grass [9, 16] | Plant response rating, Surinam Grass [9, 19] | Plant response rating, Surinam Grass [9, 20] | Plant response rating, Surinam Grass [9, 21] | Plant response rating, Johnsongrass ([10]; 16 g ai/ha) | Plant response rating, Johnsongrass ([10]; 31 g ai/ha) | Plant response rating, Bromegrass, Downy [12, 19] | Plant response rating, Bromegrass, Downy [12, 20] | Plant response rating, Bromegrass, Downy [12, 21] | Plant response rating, Guineagrass [14, 19]
35: Plant response rating, Surinam Grass [9, 24] | Plant response rating, Surinam Grass [9, 22] | Plant response rating, Guineagrass [14, 20]
95: Plant response rating, Mallow [1, 15] | Plant response rating, Sandbur [7, 15] | Plant response rating, Surinam Grass [9, 15] | Plant response rating, Ragweed [11, 22] | Plant response rating, Bromegrass, Downy [12, 15] | Plant response rating, Bromegrass, Downy [12, 18] | Plant response rating, Guineagrass [14, 18] | Plant response rating, Guineagrass [14, 23]
25: Plant response rating, Signalgrass [2, 24] | Plant response rating, Itchgrass [4, 17] | Plant response rating, Barnyardgrass [6, 18]
55: Plant response rating, Guineagrass [14, 17]
40: Plant response rating, Mallow [1, 16] | Plant response rating, Ryegrass, Italian [3, 18] | Plant response rating, Itchgrass [4, 22] | Plant response rating, Bluegrass [5, 18] | Plant response rating, Sandbur [7, 24] | Plant response rating, Quackgrass [8, 17]
85: Plant response rating, Mallow [1, 18] | Plant response rating, Signalgrass [2, 15] | Plant response rating, Ryegrass, Italian [3, 15] | Plant response rating, Itchgrass [4, 15] | Plant response rating, Barnyardgrass [6, 15] | Plant response rating, Sandbur [7, 18] | Plant response rating, Sandbur [7, 23] | Plant response rating, Quackgrass [8, 15] | Plant response rating, Ragweed [11, 17] | Plant response rating, Bromegrass, Downy [12, 24] | Plant response rating, Bindweed, Field [13, 16]
100: Plant response rating, Ragweed [11, 15] | Plant response rating, Ragweed [11, 23] | Plant response rating, Bindweed, Field [13, 15] | Plant response rating, Bindweed, Field [13, 17] | Plant response rating, Bindweed, Field [13, 24] | Plant response rating, Bindweed, Field [13, 18] | Plant response rating, Bindweed, Field [13, 23] | Plant response rating, Guineagrass [14, 15]
50: Plant response rating, Mallow [1, 19] | Plant response rating, Mallow [1, 20] | Plant response rating, Signalgrass [2, 18] | Plant response rating, Ryegrass, Italian [3, 23] | Plant response rating, Itchgrass [4, 24] | Plant response rating, Johnsongrass ([10]; 125 g ai/ha)
90: Plant response rating, Surinam Grass [9, 23] | Plant response rating, Ragweed [11, 21] | Plant response rating, Bindweed, Field [13, 21] | Plant response rating, Bindweed, Field [13, 22] | Plant response rating, Guineagrass [14, 22]
75: Plant response rating, Mallow [1, 21] | Plant response rating, Itchgrass [4, 18] | Plant response rating, Bluegrass [5, 15] | Plant response rating, Quackgrass [8, 18] | Plant response rating, Ragweed [11, 20] | Plant response rating, Bromegrass, Downy [12, 23] | Plant response rating, Bindweed, Field [13, 20] | Plant response rating, Guineagrass [14, 21]
30: Plant response rating, Bluegrass [5, 22] | Plant response rating, Barnyardgrass [6, 21] | Plant response rating, Quackgrass [8, 23]
98: Plant response rating, Ragweed [11, 24] | Plant response rating, Ragweed [11, 18]
80: Plant response rating, Mallow [1, 22] | Plant response rating, Mallow [1, 23] | Plant response rating, Signalgrass [2, 23] | Plant response rating, Barnyardgrass [6, 23] | Plant response rating, Johnsongrass ([10]; 250 g ai/ha)
70: Plant response rating, Barnyardgrass [6, 22] | Plant response rating, Sandbur [7, 22]
10: Plant response rating, Signalgrass [2, 22] | Plant response rating, Barnyardgrass [6, 19]
5: Plant response rating, Signalgrass [2, 16] | Plant response rating, Ryegrass, Italian [3, 17] | Plant response rating, Guineagrass [14, 16]
15: Plant response rating, Signalgrass [2, 17] | Plant response rating, Ryegrass, Italian [3, 24] | Plant response rating, Itchgrass [4, 16] | Plant response rating, Bluegrass [5, 24] | Plant response rating, Barnyardgrass [6, 24] | Plant response rating, Sandbur [7, 17] | Plant response rating, Quackgrass [8, 16] | Plant response rating, Surinam Grass [9, 17] | Plant response rating, Bromegrass, Downy [12, 16]
